Assay results from patent US4547369A, “Antiviral agent” (Cabinet Harle & Phelip, priority 1973, dated 1985).

Test system: EMC virus, strain VR 125
Assay: HPA 23 and murine interferon in EMC infected mice
Assay type: in vivo
Settings: no HPA 23
Source text: Synergism occurs between HPA 23 and murine interferon to combat viral infections in mice.
*Number of survival mice on inoculated mice
**range of death for dead mice

[1] = Interferon 1:3 25.000 I.U./mouse i.p.
[2] = Interferon 1:9 8.000 I.U./mouse i.p.
[3] = Interferon undiluted 75.000 I.U./mouse i.p.
[4] = Interferon undiluted 75.000 I.U./mouse i.v.

Substance: Interferon
- Number of survival mice on inoculated mice [1]: 3/10
- range of death for dead mice [1]: 5.5 ± 3.0 days
- Number of survival mice on inoculated mice [2]: 1/10
- range of death for dead mice [2]: 4.4 ± 2.1 days
- Number of survival mice on inoculated mice [3]: 5/10
- range of death for dead mice [3]: 7.1 ± 3.1 days
- Number of survival mice on inoculated mice [4]: 6/10
- range of death for dead mice [4]: 7.7 ± 2.9 days
